Assays:
Format in all cases: in vivo
[1] = test system: Ocular hyperemia patients; assay: Ocular hyperemia patients treated topically with emulsion formulations BID for 2 weeks, hyperemia graded from eye pictures
Experimental: Ocular hyperemia patients with hyperemia grade >2 (0-4, five-point scale; 0 being clear of hyperemia and 4 being of severe hyperemia) are selected for treatment with 4 emulsion formulations. Each group has about 20 patients. The patients are assigned to the groups in a way to make sure the base line average grade is similar among the groups. The formulations are dosed twice a day (BID) for 2 weeks and the patients are further followed up for 4 weeks. The formulations are administered topically by a physician on the day of visits or by the patient between visits. Patients are evaluated on day 1, week 1, and 2, before and after dosing. After the stop of dosing, patients are further followed up at 4 and 6 weeks.
The effect on ocular hyperemia is evaluated by taking pictures of the eye. […] The tolerability of the formulations is also evaluated with standard eye examinations commonly used for such assessment. The efficacy and tolerability data are analyzed by independent statisticians.

pterygium patients [2] = assay: Phase 2a clinical trial stage 2: 0.2% nintedanib eye drop vs vehicle, 28 days TID, pterygium vascularity graded from photographs
Experimental: (§1) Nintedanib was formulated into an eye drop and tested in pterygium patients in a Phase 2a clinical trial to evaluate the safety and efficacy of nintedanib. The key efficacy endpoint is effects on pterygium vascularity.
In stage 2, the safety, tolerability and efficacy of the 0.2% formulation were evaluated in a randomized, double-masked, vehicle-controlled, parallel study with 28 days TID repeat ocular dosing of vehicle and 0.2% nintedanib. The patients were further followed up by 20 weeks of post-dosing observation. Ophthalmic and physical examinations were performed at screening, Day 1 and Week 2, 4, 8, 16, and 24. External photograph of the pterygium eye was taken using a digital camera and the pterygium vascularity was graded from these images at an independent image reading center. The primary objective is to evaluate ocular and systemic safety of nintedanib in pterygium patients that have moderate to severe pterygium vascularity. The secondary objective is to assess whether the formulation is efficacious in reducing pterygium vascularity.
A total of 50 patients were enrolled and randomized in a 1:1 treatment allocation to receive either nintedanib or vehicle. The final analysis was performed after study completion. The O'Brien-Fleming group-sequential method was used for a multiple-comparison adjustment of p-values for efficacy. For the final analysis, a 2-sided test with p-value ≤0.048 is considered statistically significant for all between and within treatment comparisons.

pterygium patients [3] = assay: Phase 2a clinical trial stage 1: single dose escalating safety, tolerability and pharmacokinetics study; conditions: single dose 0.02%, 0.05%, 0.2% eye drop
Experimental: as §1
The clinic trial was conducted in two stages. In stage 1, the safety, tolerability and pharmacokinetics were evaluated in a single dose escalating study. Three dose cohorts with 8 patients in each were evaluated. Cohort 1 began at the lowest concentration of 0.02% nintedanib (weight percent based on the total weight of the eye drop), followed by an increasing dose to 0.05% for Cohort 2 and then to 0.2% for Cohort 3.

[4] = Day 1 before dosing (baseline), 0-4 five-point scale, BID topical
[5] = Wee 4 (follow-up, 2 weeks after stop of dosing), 0-4 scale
[6] = Week 6 (follow-up, 4 weeks after stop of dosing), 0-4 scale

Brc1c(NC2=NCCN2)ccc2nccnc12 [Brimonidine, (5-Bromoquinoxalin-6-yl)-(4,5-dihydro-1H-imidazol-2-yl)-amine]
Average Hyperemia Grade ([1]; Day 1 2 h post, 0-4 scale): 2 | Average Hyperemia Grade ([1]; Day 1 6 h post, 0-4 scale): 3 | Average Hyperemia Grade [1, 4]: 3 | Average Hyperemia Grade [1, 5]: 3 | Average Hyperemia Grade ([1]; Week 1 2 h post, 0-4 scale): 2 | Average Hyperemia Grade ([1]; Week 1 before, 0-4 scale): 3 | Average Hyperemia Grade ([1]; Week 2 2 h post, 0-4 scale): 2 | Average Hyperemia Grade ([1]; Week 2 before, 0-4 scale): 3 | Average Hyperemia Grade [1, 6]: 3 | duration of effect on hyperemia grade at each of the visits ([1]; after dosing): 2 to 4 h | hyperemia grade after dosing ([1]; day 1, week 1 and 2): reduced immediately after dosing | hyperemia grade after stop of treatments ([1]; week 4 and 6): the same as the baseline

COC(=O)c1ccc2c(c1)NC(=O)/C2=C(\Nc1ccc(N(C)C(=O)CN2CCN(C)CC2)cc1)c1ccccc1 [Nintedanib, (Z)-3-(1-(4-(N-((4-methyl-piperazin-1-yl)-methylcarbonyl)-N-methyl-amino)-phenylamino)-1-phenyl-methylene]-6-methoxycarbonyl-2-indolinone]
safety and tolerability (pterygium patients [2]; 0.2% eye drop, 28 days TID): excellent with no serious adverse events | Mean grade Difference, nintedanib vs vehicle (pterygium vascularity) (pterygium patients [2]; Day 1 (baseline)): −0.15 | Mean change from baseline Difference, nintedanib vs vehicle (pterygium vascularity) (pterygium patients [2]; Week 2): −0.72 | Mean grade Difference, nintedanib vs vehicle (pterygium vascularity) (pterygium patients [2]; Week 2): −0.87 | Mean change from baseline Difference, nintedanib vs vehicle (pterygium vascularity) (pterygium patients [2]; Week 4 (end of dosing)): −0.76 | Mean grade Difference, nintedanib vs vehicle (pterygium vascularity) (pterygium patients [2]; Week 4 (end of dosing)): −0.91 | Mean change from baseline Difference, nintedanib vs vehicle (pterygium vascularity) (pterygium patients [2]; Week 8): −0.41 | Mean grade Difference, nintedanib vs vehicle (pterygium vascularity) (pterygium patients [2]; Week 8): −0.53 | Mean change from baseline Difference, nintedanib vs vehicle (pterygium vascularity) (pterygium patients [2]; Week 16): −0.59 | Mean grade Difference, nintedanib vs vehicle (pterygium vascularity) (pterygium patients [2]; Week 16): −0.7 | Mean change from baseline Difference, nintedanib vs vehicle (pterygium vascularity) (pterygium patients [2]; Week 24 (end of study)): −0.17 | Mean grade Difference, nintedanib vs vehicle (pterygium vascularity) (pterygium patients [2]; Week 24 (end of study)): −0.31 | persistence of effect on pterygium vascularity (pterygium patients [2]; after 28 days TID dosing): maintained through Week 16 | effect on pterygium vascularity (pterygium patients [2]; by Week 2): highly significant | Average Hyperemia Grade ([1]; Day 1 2 h post, 0-4 scale): 3 | Average Hyperemia Grade ([1]; Day 1 6 h post, 0-4 scale): 3 | Average Hyperemia Grade [1, 4]: 3 | Average Hyperemia Grade [1, 5]: 2.5 | Average Hyperemia Grade ([1]; Week 1 2 h post, 0-4 scale): 2 | Average Hyperemia Grade ([1]; Week 1 before, 0-4 scale): 2 | Average Hyperemia Grade ([1]; Week 2 2 h post, 0-4 scale): 2 | Average Hyperemia Grade ([1]; Week 2 before, 0-4 scale): 2 | Average Hyperemia Grade [1, 6]: 3 | time the grade reduction remained significant after the stop of dosing ([1]; after 2 weeks BID dosing): 2 weeks | hyperemia grade, drug effect on day 1 ([1]; day 1, comparing to the baseline): did not change significantly | hyperemia grade reduction from baseline ([1]; week 1 and 2): about 1 grade | safety (pterygium patients [3]): No safety issues were found at all doses
